# Measurements reported in patent US20230218571A1 (Thiogenesis Therapeutics, Inc., priority 2020, published 2023).
# Assays:
# SARS-CoV-2 [1] = test: Syrian hamster SARS-CoV-2 infection model; type: in vivo; details: 60, 90 or 120 mg/kg per os once a day for 7 days
# Procedure: The efficacy of cysteamine-pantetheine disulfide (compound 1) is assessed in the Syrian hamster model. Maximal clinical signs of rapid breathing, weight loss, histopathological changes from the initial exudative phase of diffuse alveolar damage with extensive apoptosis to the later proliferative phase of tissue repair, airway and intestinal involvement with virus nucleocapsid protein expression, high lung viral load, and spleen and lymphoid atrophy associated with marked cytokine activation are observed within the first week of virus challenge. The lung virus titer is between 10^5-10^7 TCID50/g. Challenged index hamsters can consistently infected naïve contact hamsters housed within the same cage, resulting in similar pathology but not weight loss. All infected hamsters can recover and develop mean serum neutralizing antibody titer ≥1:427 fourteen days post-challenge. Immunoprophylaxis with early convalescent serum can achieve significant decrease in lung viral load but not in lung pathology.
# Three groups of 3 Syrian hamsters infected by SARS-CoV-2 per group receive cysteamine-pantetheine disulfide (compound 1) per os once a day for 7 days. The first group receives 60 mg/kg, second group 90 mg/kg and third group 120 mg/kg. Clinical status, biological parameters and viral load are characterized every day.
# SARS-CoV-2 [2] = test: Single-dose/multiple dose open-label study in patients with COVID-19; type: in vivo, human; details: patients infected with SARS-CoV-2, end of study
# Procedure: A single-dose/multiple dose, open-labeled, non-randomized, two-period study of Cysteamine-Pantetheine Disulfide (compound 1) in […] (male and female) with COVID-19 under fasting or fed conditions is performed. Prior to treatment, patients undergo screening to determine study eligibility (Day-1).
# Pharmacodynamic Evaluations: SARS-CoV-2 viral load will be obtained from samples collected from Day 0 to Day 15 according to the Schedule of Events.
# [3] = administered to fasting patients; cited from earlier work
SMILES,recovery (SARS-CoV-2 [1]),symptoms of infection (SARS-CoV-2 [1]),viral load (SARS-CoV-2 [1]),"risk of severe COVID-19 outcomes (pneumonitis, ARDS, respiratory failure, septic shock, organ failure, cytokine storm, death) (SARS-CoV-2 [2])",inter-patient variation in cysteamine plasma levels [3]
"CC(C)(CO)[C@@H](O)C(=O)NCCC(=O)NCCSSCCN [compound 1, cysteamine-(R)-pantetheine disulfide]",more rapid recovery,less severe symptoms of infection,lower viral load,lower risk,
"NCCS [cysteamine, 2-aminoethanethiol]",,,,,up to four fold
